From patent US7579487B2 (dated 2009)

SMILES | melting point
CC(C)=C(NS(=O)(=O)c1ccc(C)cc1)C(=O)O | 188.5 to 189.5 °C
C/C=C(/NS(=O)(=O)c1ccc(C)cc1)C(=O)O | 150.5 to 151.5 °C
CC(C)=C(NS(=O)(=O)Cc1ccccc1)C(=O)O | 194 to 195 °C
CC(C)[C@H](NS(=O)(=O)Cc1ccccc1)C(=O)O | 120 to 121.5 °C
CC(C)=C(NS(=O)(=O)c1ccc(F)cc1)C(=O)O | 172 to 173 °C
Cc1ccc(S(=O)(=O)NC(CC(C)C)C(=O)O)cc1 (stereo not shown) | 122 to 123 °C
Cc1ccc(S(=O)(=O)N/C(=C/C(C)C)C(=O)O)cc1 | 166.5 to 167.5 °C
Cc1ccc(S(=O)(=O)NC(C(=O)O)C2CCCCC2)cc1 (stereo not shown) | 182 to 184 °C
CCC(NS(=O)(=O)c1ccc(C)cc1)C(=O)O (stereo not shown) | 133.5 to 135.5 °C
O=C(O)C(NS(=O)(=O)c1ccc(F)cc1)=C1CCCCC1 | 214 to 215 °C
CC(C)[C@H](NS(=O)(=O)CCCc1ccccc1)C(=O)O | 151 to 152 °C
COc1ccc(S(=O)(=O)NC(C(=O)O)C(C)C)cc1 (stereo not shown) | 116.5 to 117.5 °C
O=C(O)C(NS(=O)(=O)c1ccc(F)cc1)C1CCCCC1 (stereo not shown) | 143 to 145 °C
COc1ccc(S(=O)(=O)NC(C(=O)O)=C(C)C)cc1 | 162.5 to 163.5 °C
CC(C)=C(NS(=O)(=O)CCCc1ccccc1)C(=O)O | 104.5 to 106 °C
Cc1ccc(S(=O)(=O)NC(C(=O)O)=C2CCCCC2)cc1 | 221 to 222 °C
